Test results reported in patent US8881823B2, “Environmentally friendly low temperature breaker systems and related methods” (Halliburton Energy Services, Inc., priority 2011, dated 2014).

Assays:
[1] = Active toxicity test of GLDA on Rainbow trout (OECD 203); format: in vivo, Oncorhynchus mykiss; settings: rainbow trout (Oncorhynchus mykiss), in vivo, OECD 203, 96-h
Procedure: (§1) GLDA was also tested for its eco-toxicological effect on various environmental subjects. In particular, the active toxicity of GLDA was measured on various organisms following OECD 201, 202 and 203 protocols.

[2] = tested on: Rainbow trout (Oncorhynchus mykiss); test: as above; format: in vivo; settings: OECD 203, 96-h
Procedure: as §1

[3] = Chemical oxygen demand (COD) test; format: physicochemical
From the text: Table 2 compares the biodegradability of GLDA and EDTA and summarizes chemical oxygen demand (COD) tests which indirectly measures the amount of organic compounds in water.

[4] = Initial and over time miscibility and pH in potassium formate brines; format: physicochemical; settings: for After Static Aging: overnight 150° F.; for pH Final: static 16 hrs @ 150° F.
Procedure: Completion breaker solutions were to be tested at 5%, 10%, and 20% by volume concentrations in each of the brines. The initial miscibility and the miscibility after static aging overnight at 150° F. were observed. Also, the pH of the final mixes was measured. The different concentrations of the breaker solutions were prepared with fresh water and filtered through a 1.6 μm glass fiber filter prior to testing.
The tests were run by adding the appropriate volume of the test breaker (5%, 10%, or 20% by volume) to the volume of the test brine needed to total 100 ml in a 4 ounce jar, sealing it, and swirling to mix the components. Observation was noted of the compatibility of the components.

[5] = tested on: Daphnia magna; test: Active toxicity test of GLDA on Daphnia magna (OECD 202); format: in vivo; settings: OECD 202, 48-h
Procedure: as §1

[6] = as above; format: in vivo; settings: in vivo, OECD 202, 48-h
Procedure: as §1

[7] = Compatibility and dissolution ability in potassium formate brine; format: physicochemical; settings: for % Dissolved or precipitated out / Amount of carbonate remaining: 20% v/v breaker; for Amount of carbonate remaining: 2.5 g calcium carbonate, 16 hours, * = precipitation of formate salts
Procedure: In this Example, the compatibility and dissolution ability of various breaker systems with formate brine were evaluated. […] For each sample a 20% v/v breaker sample was prepared in three different concentrations of potassium formate brine (11 ppg, 12 ppg, and 13 ppg).
To determine the compatibility of each breaker with the potassium formate brine, each sample was checked for the formation of formate salts. This precipitation was indicative of an incompatibility of the breaker system with the formate brine. Samples in which precipitation was observed are noted with an asterisk (*).
The dissolution ability of the breaker systems was also tested in the various concentration of formate brine. […] The jars were then dried in an 90° F. oven for 16 hours. After the elapsed time, the amount of carbonate that remained was weighed and tabulated. The difference in weight represented the amount of carbonate that was dissolved by the breaker system and/or precipitated out as a result of being incompatible with the formate brine.

[8] = Miscibility and pH of breaker systems in fresh water; format: physicochemical; settings: breaker system in fresh water, 150° F. for 16 hours
Procedure: Several chelating agents and acids (breaker systems) were tested for their calcium carbonate dissolving capacity and miscibility in fresh water. Tests of the breaker systems were performed by adding a known volume of breaker system to a volume of brine needed to fill 100 ml in a jar. The jars were then sealed and swirled to mix the components. Samples containing 5%, 10%, or 20% v/v of chelating agents and acids were prepared. The jars were then placed in a static oven at 150° F. for 16 hours. Afterwards, miscibility of the components was observed and the pH of each mixture was tabulated.

[9] = Multiple step return permeability test; settings: 20% GLDA solution in 11 lb/gal sodium bromide, 16 hours soak, approximately 110° F.
From the text: To simulate the performance of a breaker solution in potential downhole applications, a 20% GLDA solution in 11 lb/gal sodium bromide was used in a multiple step return permeability test on a low permeability Berea Sandstone core plug. The following procedure was used.
A 1.0″ diameter core plug was cut out of a Berea Sandstone block having low permeability (about 20% porosity). The core plug was inserted into a containment sleeve of a manual return permeameter (MRP). The pressure chamber was sealed and the temperature was maintained at approximately 110° F., while the confining pressure was at approximately 2,500 psi. Once the temperature and overburden pressure stabilized, isoparaffin solvent (“SOLTROL® 170” commercially available from Chevron Phillips Chemical Company) filtered to 0.45 micron, was produced through the core at 4 ml/min against approximately 200 psi back-pressure. […] The initial and final permeability values were calculated using Darcy's Law for linear flow: […]
Treatment simulation in the lab involved three separate steps, each step potentially causing formation damage or a reduction in permeability. […] Once the displacement of the drill-in fluid was complete, the damage caused by the previous three injection steps was evaluated by pumping of SOLTROL® 170 through the core until a constant permeability was obtained using the same procedure used for the initial permeability. […]

[10] = 5% by volume, potassium formate brine 11.0 lb/gal
[11] = 5% by volume, potassium formate brine 12.0 lb/gal
[12] = 5% by volume, potassium formate brine 13.0 lb/gal
[13] = 10% by volume, potassium formate brine 11.0 lb/gal
[14] = 10% by volume, potassium formate brine 12.0 lb/gal
[15] = 10% by volume, potassium formate brine 13.0 lb/gal
[16] = 20% by volume, potassium formate brine 11.0 lb/gal
[17] = 20% by volume, potassium formate brine 12.0 lb/gal
[18] = 20% by volume, potassium formate brine 13.0 lb/gal

## O=C(O)CC[C@@H](C(=O)O)N(CC(=O)O)CC(=O)O [GLDA, L-glutamic acid N,N-diacetic acid]
[1]
  LC50 at 96 h: > 100 µg/mL
[2]
  96-h NOEC: NOEC ≧ 100 mg/l
[3]
  COD: 345 to 385 mg/g
[4]; [10]
  Initial Observation: Clear, totally soluble
  After Static Aging: Clear, totally soluble
  pH Final: 12.7
[4]; [11]
  Initial Observation: Clear, totally soluble
  After Static Aging: Clear, totally soluble
  pH Final: 13.3
[4]; [12]
  Initial Observation: Clear, totally soluble
  After Static Aging: Clear, totally soluble
  pH Final: 13.8
[4]; [13]
  Initial Observation: Clear, totally soluble
  After Static Aging: Clear, totally soluble
  pH Final: 13.3
[4]; [14]
  Initial Observation: Clear, totally soluble
  After Static Aging: Clear, totally soluble
  pH Final: 14.4
[4]; [15]
  Initial Observation: Clear, totally soluble
  After Static Aging: Clear, totally soluble
  pH Final: 15.0
[4]; [16]
  Initial Observation: Clear, totally soluble
  After Static Aging: Clear, totally soluble
  pH Final: 13.7
[4]; [17]
  Initial Observation: Clear, totally soluble
  After Static Aging: Clear, totally soluble
  pH Final: 14.7
[4]; [18]
  Initial Observation: Clear, totally soluble
  After Static Aging: Clear, totally soluble
  pH Final: 15.4
[4]; tested concentrations, 11.0-13.0 lb/gal brines
  solubility / miscibility in the potassium formate brines: soluble in the tested concentrations of the potassium formate brine
[5]
  48-h NOEC: NOEC ≧ 100 mg/l
[6]
  EC50 at 48 h: > 100 µg/mL
[7]; 20% v/v breaker, 11, 12 and 13 ppg potassium formate, precipitation of formate salts = incompatible
  compatibility with the formate brine: fully compatible with the formate brine
[7]; 11 ppg Potassium Formate
  % Dissolved or precipitated out: 48%
  Amount of carbonate remaining: 1.05 g
[7]; 12 ppg Potassium Formate
  % Dissolved or precipitated out: 33%
  Amount of carbonate remaining: 1.67 g
[7]; 13 ppg Potassium Formate
  % Dissolved or precipitated out: 20%
  Amount of carbonate remaining: 2.00 g
[8]
  pH: >12
[9]
  return permeability after the breaker cleanup, % of the initial permeability: 94%
